For assay [1], the system named is Th Ser40 phosphorylation in mouse striatum slices. Put plainly: Th Ser40 phosphorylation in mouse striatal slices ex vivo (WES automated western). In kind it is cell-based. Particulars: mouse striatal slices in aCSF. The text has this: FIG. 13. Bay 60-7550 and Guanylin synergize to induce Ser40 phosphorylation Analysis of striatal slices treated with indicated compounds. WES data showing the phosphorylation of Th on Serine 40 is shown as well as total Th levels (a). From left to right are sequential striatal slices from rostral to caudal. Every slice is split into left and right hemisphere and either treated with compounds or vehicle. Left a positive and negative control is shown (Neuro2a cells transfected with Th or empty vector). The amount of Th Ser40 is corrected for the amount of total Th and shown in the bar graph (b). Each individual slice is indicated by a different symbol. Signficance is determined using a 2-tailed paired t-test. 2-tailed paired t-test: p=0.006.
Adult mice with an average of 5 weeks were sacrificed and the brain was quickly removed and sliced into coronal sections of 250 μm using a vibratome. Sections containing striatum were micro-dissected to remove non-striatal structures. Hemispheres were separated and one hemisphere was treated with compounds whereas the counter-hemisphere was treated with vehicle. Treatment of slices occurred in carbonized artificial cerebrospinal fluid (aCSF). After treatments, slices were lyzed in SDS containing sample buffer, sonicated, and heated at 95° C. Samples were analyzed on a WES automated western system (Protein Simple) according to manufacturer's instructions.
To investigate the effect of PDE2 inhibition in the mouse brain, an ex-vivo approach using brain slices was utilized. Coronal slices of mouse striatum were prepared and treated with BAY-60 7550 diluted in aCSF and subsequently analyzed by a WES automated western system. […] PDE2 is thus expressed in dopaminergic neurons and PDE2 protein and Th protein are present in the synaptic terminals of the neurons which project from the midbrain dopamine system to the striatum. To investigate the effects of GUCY2C ligands on Th activation, coronal slices of the mouse striatum were prepared, treated with guanylin and analyzed for Th Ser40 phosphorylation as was done for BAY-60-7550. […] The machinery for producing dopamine is thus present in the synaptic terminals where dopamine is released. […] Since both BAY 60-7550 and guanylin increased Th phosphorylation at 10μM, but not at 1 μM, we examined the effect of combining BAY 60-7750 and guanylin at 1μM.

For a further assay, the target named is GUCY2C (Homo sapiens, UniProt P25092). Put plainly: GUCY2C ligand analysis in HEK-293 cells transfected with GUCY2C and Th (WES). In kind it is cell-based. Also on record: expressed in transfected cells; host or cells: HEK-293 cells transfected with GUCY2C and Th. Particulars: 10 μM, Th Ser40 corrected for total Th, n=3. On the procedure: Potential GUCY2C ligands were tested in HEK-293 cells transfected with GUCY2C and Th and subsequently treated and analyzed by automated western (WES). Th Ser40 was corrected for total Th. Controls were set to 1. Significance is determined by two-tailed t-test on n=3. * p<0.05, **p<0.01, ***p<0.005, “”p<0.001. A) Guanylin control 10 μM. B) Peptides 1 to 5 in an amount of 10 μM. C) Peptides 6 to 11 in an amount of 10 μM.
Chain of GUCY2C (P25092 24-1073): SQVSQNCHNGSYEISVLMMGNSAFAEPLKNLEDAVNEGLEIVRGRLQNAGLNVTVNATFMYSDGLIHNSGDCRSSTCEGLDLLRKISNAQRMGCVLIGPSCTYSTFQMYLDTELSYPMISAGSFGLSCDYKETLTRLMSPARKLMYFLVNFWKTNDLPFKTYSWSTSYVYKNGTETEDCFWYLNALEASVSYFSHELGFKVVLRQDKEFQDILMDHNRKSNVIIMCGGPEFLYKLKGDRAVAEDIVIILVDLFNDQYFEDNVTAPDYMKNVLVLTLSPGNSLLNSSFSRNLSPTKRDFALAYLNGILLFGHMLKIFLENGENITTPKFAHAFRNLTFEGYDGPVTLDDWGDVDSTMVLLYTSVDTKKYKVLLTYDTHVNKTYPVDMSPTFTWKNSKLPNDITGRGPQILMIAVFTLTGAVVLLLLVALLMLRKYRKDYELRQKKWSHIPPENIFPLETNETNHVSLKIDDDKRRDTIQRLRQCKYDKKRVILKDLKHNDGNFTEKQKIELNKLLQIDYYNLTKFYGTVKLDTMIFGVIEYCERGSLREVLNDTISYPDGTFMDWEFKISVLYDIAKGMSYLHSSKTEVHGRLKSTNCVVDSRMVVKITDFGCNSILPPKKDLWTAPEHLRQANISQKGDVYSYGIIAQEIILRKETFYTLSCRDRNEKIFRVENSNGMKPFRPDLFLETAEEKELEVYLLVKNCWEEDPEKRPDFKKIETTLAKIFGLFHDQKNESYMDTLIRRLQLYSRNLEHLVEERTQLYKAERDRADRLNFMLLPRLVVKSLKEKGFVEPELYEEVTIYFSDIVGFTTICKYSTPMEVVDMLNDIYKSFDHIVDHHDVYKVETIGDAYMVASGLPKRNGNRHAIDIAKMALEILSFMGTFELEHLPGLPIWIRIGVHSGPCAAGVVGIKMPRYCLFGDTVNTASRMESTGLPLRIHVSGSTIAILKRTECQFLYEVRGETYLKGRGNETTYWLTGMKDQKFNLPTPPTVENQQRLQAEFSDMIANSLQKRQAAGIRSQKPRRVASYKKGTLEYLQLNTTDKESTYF
We designed novel peptides with different activities with respect to endogenous GUCY2C ligands (Table 3). The peptides were analyzed in Th and GUCY2C transfected HEK-293 cells and subsequently tested ex-vivo in mice striatal slices. […] We synthezised uroguanylin and heat stable toxin as controls for the synthezised peptides and they thus are from a different source than the commercially available uroguanylin and heat stable toxin. […] Possibly the effects of the peptides can differ depending on the area in the striatum which is stimulated.

We go through 2 molecules from US20210330736A1 (UNIVERSITEIT VAN AMSTERDAM, priority 2018, published 2021).

In the case of `COc1ccc(Cc2nn3c([C@@H](CCCc4ccccc4)[C@@H](C)O)nc(C)c3c(=O)[nH]2)cc1OC` [BAY 60-7550], the “Ser40 phosphorylation in striatal slices” value is reported as “did not result in a significant increase” in assay [1] (1 μM) and “increase in Ser40 phosphorylation” in assay [1] (10 μM).

Consider “guanylin: natural agonistic ligand of GUCY2C, 15 amino acid polypeptide; commercially available rat/mouse guanylin (Chemcruz) (PNTCEICAYAACTGC) [reference compound]”, for which the “Ser40 phosphorylation in HEK-293 cells (significance, in words)” value with GUCY2C was “modest, but significant increase”. Moreover, the “Ser40 phosphorylation in striatal slices” value in assay [1] (1 μM) is “did not result in a significant increase”; in assay [1] (10 μM), “increase in Ser40 phosphorylation”.
